This assay relates to neutrophil-to-lymphocyte ratio in blood. Put plainly: Neutrophil-to-lymphocyte ratio in venous blood after four weeks of curcumin-containing capsule intake. In kind it is in vivo, human. As for the experimental part:
Each of 20 men and women of 60 years old or older was caused to take a curcumin-containing capsule (containing 90 mg of curcumin per capsule) twice a day in the morning and the evening for four weeks (daily dose 180 mg). Venous blood was collected at start and end of administration, and a neutrophil-to-lymphocyte ratio was measured.
As a result, in a non-parametric test (Wilcoxon code rank test), the neutrophil-to-lymphocyte ratio at start of administration was 1.7 (1.3, 2.1), whereas the neutrophil-to-lymphocyte ratio at end of administration was 1.4 (1.2, 1.7).

For the compound `COc1cc(/C=C/C(=O)/C=C(O)/C=C/c2ccc(O)c(OC)c2)ccc1O` [curcumin], the “neutrophil-to-lymphocyte ratio at end of administration” value (after four weeks, 90 mg curcumin capsule twice a day (daily dose 180 mg), oral, 20 men and women of 60 years old or older, venous blood) is 1.4 (1.2, 1.7). Further, the “neutrophil-to-lymphocyte ratio at start of administration” value (baseline, 20 men and women of 60 years old or older, venous blood, spread in brackets not defined) is given as 1.7 (1.3, 2.1). Moreover, the “change of neutrophil-to-lymphocyte ratio, start vs end of administration” value (four weeks, daily dose 180 mg, non-parametric test (Wilcoxon code rank test)) is “significantly decreased”.

These data come from patent US12616665B2, “Neutrophil-to-lymphocyte ratio decreasing agent” (THERABIOPHARMA INC., priority 2020, dated 2026).
